Measured values from BindingDB's records for doi:10.7270/Q2NZ862K (Nmmlsc, 2007).
pKi: −log10 of the molar value.

Target: T1, fMet-Leu-Phe receptor (Homo sapiens, UniProt P21462)
T1 sequence (P21462 whole entry): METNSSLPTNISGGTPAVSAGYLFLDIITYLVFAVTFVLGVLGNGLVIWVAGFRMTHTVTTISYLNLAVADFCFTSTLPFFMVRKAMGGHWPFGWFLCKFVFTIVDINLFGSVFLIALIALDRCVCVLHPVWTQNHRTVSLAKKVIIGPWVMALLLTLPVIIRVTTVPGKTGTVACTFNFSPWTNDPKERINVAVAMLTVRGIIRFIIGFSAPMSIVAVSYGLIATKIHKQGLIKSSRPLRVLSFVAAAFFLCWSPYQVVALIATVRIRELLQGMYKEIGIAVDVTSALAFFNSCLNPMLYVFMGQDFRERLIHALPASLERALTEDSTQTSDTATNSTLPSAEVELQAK
Assay: FPR ligands, dose response (AID 519)

Row | SMILES | pKi
1 | CC1=C(C(=O)OC(C)C)[C@]2(C(=O)N(CC(N)=O)c3ccccc32)C(C#N)C(=N)O1 (stereo partly drawn) [(3R)-6'-amino-1-(2-amino-2-keto-ethyl)-5'-cyano-2-keto-2'-methyl-spiro[indoline-3,4'-pyran]-3'-carboxylic acid isopropyl ester] | < 4.36
2 | C=CCN1C(=O)C2(c3ccccc31)C(C(=O)c1ccc3c(c1)OCCO3)C(=O)C(=O)N2CCCOC (stereo unspecified) [(4'E)-1-allyl-4'-[2,3-dihydro-1,4-benzodioxin-6-yl(hydroxy)methylene]-1'-(3-methoxypropyl)spiro[indoline-3,5'-pyrrolidine]-2,2',3'-trione] | < 4.36
3 | COCCCN1C(=O)C(=O)C(C(=O)c2ccc3c(c2)CC(C)O3)C1c1cccnc1 (stereo unspecified) [(4E)-1-(3-methoxypropyl)-4-[(2-methyl-2,3-dihydro-1-benzofuran-5-yl)-oxidanyl-methylidene]-5-pyridin-3-yl-pyrrolidine-2,3-dione] | < 4.36
4 | Cc1ccc(C)c(C(=O)C2C(=O)C(=O)N(CCCn3ccnc3)C2c2ccncc2)c1 (stereo unspecified) [(4E)-4-[(2,5-dimethylphenyl)-hydroxy-methylene]-1-(3-imidazol-1-ylpropyl)-5-(4-pyridyl)pyrrolidine-2,3-quinone] | < 4.36
5 | Cc1nc2c(C)cccn2c1C(=O)C1C(=O)C(=O)N(CCN2CCOCC2)C1c1cccs1 (stereo unspecified) [(4E)-4-[(2,8-dimethyl-3-imidazo[1,2-a]pyridinyl)-hydroxymethylidene]-1-[2-(4-morpholinyl)ethyl]-5-thiophen-2-ylpyrrolidine-2,3-dione] | < 4.36
6 | COc1cccc(C2C(C(=O)c3ccc(OC)c(OC)c3)C(=O)C(=O)N2c2cc(C)on2)c1 (stereo unspecified) [(4E)-4-[(3,4-dimethoxyphenyl)-hydroxy-methylene]-5-(3-methoxyphenyl)-1-(5-methylisoxazol-3-yl)pyrrolidine-2,3-quinone] | < 4.36
7 | COCCCN1C(=O)C(=O)C(C(=O)c2ccc(OC)cc2C)C1c1cccnc1 (stereo unspecified) [(4E)-4-[(4-methoxy-2-methyl-phenyl)-oxidanyl-methylidene]-1-(3-methoxypropyl)-5-pyridin-3-yl-pyrrolidine-2,3-dione] | < 4.36
8 | COc1ccc(C(=O)C2C(=O)C(=O)N(Cc3ccco3)C2c2ccc(OC)cc2OC)cc1 (stereo unspecified) [(4E)-5-(2,4-dimethoxyphenyl)-1-(2-furanylmethyl)-4-[hydroxy-(4-methoxyphenyl)methylidene]pyrrolidine-2,3-dione] | < 4.36
9 | CC1Cc2cc(C(=O)C3C(=O)C(=O)N(CCN4CCOCC4)C3c3ccccc3F)ccc2O1 (stereo unspecified) [(4E)-5-(2-fluorophenyl)-4-[(2-methyl-2,3-dihydro-1-benzofuran-5-yl)-oxidanyl-methylidene]-1-(2-morpholin-4-ylethyl)pyrrolidine-2,3-dione] | < 4.36
10 | Cc1ccc(C(=O)C2C(=O)C(=O)N(c3cc(C)on3)C2c2cccc(Br)c2)cc1 (stereo unspecified) [(4E)-5-(3-bromophenyl)-1-(5-methyl-1,2-oxazol-3-yl)-4-[(4-methylphenyl)-oxidanyl-methylidene]pyrrolidine-2,3-dione] | < 4.36
11 | Cc1cc(N2C(=O)C(=O)C(C(=O)c3ccc(F)cc3)C2c2cccc(Br)c2)no1 (stereo unspecified) [(4E)-5-(3-bromophenyl)-4-[(4-fluorophenyl)-hydroxy-methylene]-1-(5-methylisoxazol-3-yl)pyrrolidine-2,3-quinone] | < 4.36
12 | Cc1ccc(C(=O)C2C(=O)C(=O)N(CC(C)O)C2c2ccc(N(C)C)cc2)cc1 (stereo unspecified) [(4E)-5-[4-(dimethylamino)phenyl]-1-(2-hydroxypropyl)-4-[hydroxy(p-tolyl)methylene]pyrrolidine-2,3-quinone] | < 4.36
13 | CCOc1cccc(C(=O)C2C(=O)C(=O)N(Cc3ccco3)C2c2ccncc2)c1 (stereo unspecified) [(4Z)-1-(2-furfuryl)-4-[hydroxy(m-phenetyl)methylene]-5-(4-pyridyl)pyrrolidine-2,3-quinone] | < 4.36
14 | COc1ccc(C(=O)C2C(=O)C(=O)N(c3nc(C)c(C)s3)C2c2ccco2)cc1 (stereo unspecified) [(4Z)-1-(4,5-dimethyl-1,3-thiazol-2-yl)-5-(furan-2-yl)-4-[(4-methoxyphenyl)-oxidanyl-methylidene]pyrrolidine-2,3-dione] | < 4.36
15 | CCOc1cccc(C(=O)C2C(=O)C(=O)N(Cc3cccnc3)C2c2ccco2)c1 (stereo unspecified) [(4Z)-4-[(3-ethoxyphenyl)-hydroxymethylidene]-5-(2-furanyl)-1-(3-pyridinylmethyl)pyrrolidine-2,3-dione] | < 4.36
16 | Cc1ccc(C2C(C(=O)c3ccc(Br)cc3)C(=O)C(=O)N2Cc2ccco2)o1 (stereo unspecified) [(4Z)-4-[(4-bromophenyl)-hydroxy-methylene]-1-(2-furfuryl)-5-(5-methyl-2-furyl)pyrrolidine-2,3-quinone] | < 4.36

The remaining lines, values ahead:

Row | pKi | SMILES
17 | < 4.36 | CSCCC1c2c(-c3cccs3)n[nH]c2OC(=N)C1C#N (stereo unspecified) [6-azanyl-4-(2-methylsulfanylethyl)-3-thiophen-2-yl-2,4-dihydropyrano[2,3-c]pyrazole-5-carbonitrile]
18 | 4.50 | Cc1ccc(C2c3c([nH]c(=S)[nH]c3=O)N=C3CC(C)(C)CC(=O)C32)cc1 (stereo unspecified) [8,8-dimethyl-5-(4-methylphenyl)-2-sulfanylidene-5,7,9,10-tetrahydro-1H-pyrimido[4,5-b]quinoline-4,6-dione]
19 | 4.42 | COc1cc(C2C(C(=O)c3ccc4c(c3)CC(C)O4)C(=O)C(=O)N2CCCn2ccnc2)ccc1O (stereo unspecified) [(4E)-1-(3-imidazol-1-ylpropyl)-5-(3-methoxy-4-oxidanyl-phenyl)-4-[(2-methyl-2,3-dihydro-1-benzofuran-5-yl)-oxidanyl-methylidene]pyrrolidine-2,3-dione]
20 | 4.71 | COCCCN1C(=O)C(=O)C(C(=O)c2ccccc2)C1c1ccc2c(c1)OCO2 (stereo unspecified) [(4E)-5-(1,3-benzodioxol-5-yl)-1-(3-methoxypropyl)-4-[oxidanyl(phenyl)methylidene]pyrrolidine-2,3-dione]
21 | 4.89 | COc1ccccc1C1C(C(=O)c2ccccc2)C(=O)C(=O)N1CCO (stereo unspecified) [(4Z)-1-(2-hydroxyethyl)-4-[hydroxy(phenyl)methylene]-5-(2-methoxyphenyl)pyrrolidine-2,3-quinone]
22 | 4.42 | CCOc1ccc(C(=O)C2C(=O)C(=O)N(c3nc(C)c(C)s3)C2c2ccco2)cc1 (stereo unspecified) [(4Z)-1-(4,5-dimethyl-1,3-thiazol-2-yl)-4-[(4-ethoxyphenyl)-hydroxymethylidene]-5-(furan-2-yl)pyrrolidine-2,3-dione]
23 | 5.06 | CCOc1cccc(C(=O)C2C(=O)C(=O)N(CCOC)C2c2ccc(C)o2)c1 (stereo unspecified) [(4Z)-4-[(3-ethoxyphenyl)-hydroxymethylidene]-1-(2-methoxyethyl)-5-(5-methyl-2-furanyl)pyrrolidine-2,3-dione]
24 | 5.12 | Cc1ccc(C2C(C(=O)c3ccc(Cl)cc3)C(=O)C(=O)N2CC2CCCO2)o1 (stereo unspecified) [(4Z)-4-[(4-chlorophenyl)-hydroxy-methylene]-5-(5-methyl-2-furyl)-1-(tetrahydrofurfuryl)pyrrolidine-2,3-quinone]
25 | 4.68 | CCOc1ccc(C(=O)C2C(=O)C(=O)N(CC3CCCO3)C2c2ccco2)cc1 (stereo unspecified) [(4Z)-4-[(4-ethoxyphenyl)-hydroxymethylidene]-5-(2-furanyl)-1-(2-oxolanylmethyl)pyrrolidine-2,3-dione]
26 | 4.86 | CCOc1ccc(C(=O)C2C(=O)C(=O)N(CC3CCCO3)C2c2ccc(C)o2)cc1 (stereo unspecified) [(4Z)-4-[(4-ethoxyphenyl)-hydroxymethylidene]-5-(5-methyl-2-furanyl)-1-(2-oxolanylmethyl)pyrrolidine-2,3-dione]
